Laboratory results taken from patent US10933061B2 (Shepherd Therapeutics, Inc., priority 2017, dated 2021).
Where “and” joins values, the source holds several entries; their conditions need not be identical. Equal values may be shown once. Read-outs that look alike come from different tables or passages of the source.

How the values were obtained:
Assay in all cases: Chou-Talalay combination assay, Cell Titer Glo
[1] = test system: NCI-H295R adrenocortical carcinoma cells; type: cell-based; settings: combination with pyrvinium pamoate, 72 hour incubation
Protocol: (§1) Following a 72 hour incubation, cell viability was determined using Cell Titer Glo.

[2] = test system: SW13 adrenocortical carcinoma cells; type: cell-based; settings: combination with pyrvinium pamoate, 72 hour incubation
Protocol: as §1

[3] = test system: carcinoid tumor cell line STC-1; type: cell-based; settings: combination with pyrvinium pamoate, 72 hour incubation
Protocol: as §1

[4] = test system: CCC-5 cholangiocarcinoma cells; type: cell-based; settings: combination with pyrvinium pamoate, 72 hour incubation
Protocol: as §1

[5] = test system: TFK-1 cholangiocarcinoma cells; type: cell-based; settings: combination with pyrvinium pamoate, 72 hour incubation
Protocol: as §1

[6] = test system: UM-Chor1 chordoma cell line; type: cell-based; settings: combination with pyrvinium pamoate, 72 hour incubation
Protocol: as §1

[7] = test system: HCT116 colorectal carcinoma cells; type: cell-based; settings: combination with pyrvinium pamoate, 72 hour incubation
Protocol: as §1

[8] = test system: Colo-205 colorectal carcinoma cells; type: cell-based; settings: combination with pyrvinium pamoate, 72 hour incubation
Protocol: as §1

[9] = test system: Flo-1 esophageal carcinoma cells; type: cell-based; settings: 72 hour incubation; for CI range: combination with pyrvinium pamoate
Protocol: as §1

[10] = test system: OE-33 esophageal carcinoma cells; type: cell-based; settings: combination with pyrvinium pamoate, 72 hour incubation
Protocol: as §1

[11] = test system: TC-32 Ewing's sarcoma cells; type: cell-based; settings: combination with pyrvinium pamoate, 72 hour incubation
Protocol: as §1

[12] = test system: TC-71 Ewing's sarcoma cells; type: cell-based; settings: combination with pyrvinium pamoate, 72 hour incubation
Protocol: as §1

[13] = test system: Kato-III gastric carcinoma cells; type: cell-based
Protocol: as §1

[14] = test system: SNU-16 gastric carcinoma cells; type: cell-based; settings: 72 hour incubation; for CI range: combination with pyrvinium pamoate
Protocol: as §1

[15] = test system: GIST-1 gastrointestinal stromal tumor cells; type: cell-based; settings: combination with pyrvinium pamoate, 72 hour incubation
Protocol: as §1

[16] = test system: SK-LMS-1 leiomyosarcoma cells; type: cell-based; settings: combination with pyrvinium pamoate, 72 hour incubation
Protocol: as §1

[17] = test system: COV362 ovarian carcinoma cells; type: cell-based; settings: combination with pyrvinium pamoate, 72 hour incubation
Protocol: as §1

[18] = test system: TOV-112D ovarian carcinoma cells; type: cell-based; settings: 72 hour incubation; for CI range: combination with pyrvinium pamoate
Protocol: as §1

[19] = test system: Hs766t pancreatic carcinoma cells; type: cell-based; settings: combination with pyrvinium pamoate, 72 hour incubation
Protocol: as §1

[20] = test system: Rh30 rhabdomyosarcoma cells; type: cell-based; settings: combination with pyrvinium pamoate, 72 hour incubation
Protocol: as §1

[21] = test system: Rh41 rhabdomyosarcoma cells; type: cell-based; settings: combination with pyrvinium pamoate, 72 hour incubation
Protocol: as §1

[22] = test system: BxPC-3 pancreatic carcinoma cells; settings: 72 hour incubation; for CI range: combination with pyrvinium pamoate
Protocol: as §1

[23] = test system: SK-N-AS neuroblastoma cells; type: cell-based
Protocol: as §1

[24] = test system: CHP-212 neuroblastoma cells; type: cell-based; settings: combination with pyrvinium pamoate, 72 hour incubation
Protocol: as §1

[25] = test system: DMS-114 small cell lung carcinoma cells; type: cell-based; settings: 72 hour incubation
Protocol: as §1

[26] = test system: SW-1271 small cell lung carcinoma cells; type: cell-based; settings: 72 hour incubation
Protocol: as §1

[27] = test system: SK-UT-1B leiomyosarcoma cells; type: cell-based; settings: combination with pyrvinium pamoate, 72 hour incubation
Protocol: as §1

[28] = test system: HepG2 hepatocellular carcinoma cells; settings: combination with pyrvinium pamoate, 72 hour incubation
Protocol: as §1

[29] = test system: HepG2-C3A hepatocellular carcinoma cells; settings: combination with pyrvinium pamoate, 72 hour incubation
Protocol: as §1

[30] = test system: SK-UT-1 leiomyosarcoma cells; type: cell-based; settings: 72 hour incubation
Protocol: as §1

[31] = Kato-III, combination with pyrvinium pamoate, 72 hour incubation
[32] = SK-N-AS, combination with pyrvinium pamoate, 72 hour incubation

Compound | CI range [1] | CI range [2] | CI range [3] | CI range [6] | CI range [7] | CI range [8] | CI range [9] | CI range [10] | CI range [11] | CI range [12] | CI range [14] | CI range [15] | CI range [16] | CI range [17] | CI range [19] | CI range [20] | CI range [21] | CI range [22] | CI range [24] | CI range [27] | other results
O=c1[nH]cc(F)c(=O)[nH]1 [5-FU, 5-Fluorouracil] | 0.529-0.780 | 0.506-0.834 | 0.596-0.841 | 0.489-0.886 | 0.806-0.886 | 0.094-0.867 | 0.378-0.859 | 0.481-0.715 | 0.337-0.843 | 0.409-0.821 | 0.547-0.850 | 0.168-0.798 | 0.421-0.814 | 0.472-0.723 | 0.328-0.504 and 0.230-0.589 | 0.001-0.887 | 0.642-0.831 | 0.539-0.785 |  |  | CI range [4]: 0.319-0.892; CI range [5]: 0.303-0.814; Synergy with pyrvinium pamoate [13, 31]: No; Synergy with pyrvinium pamoate [18]: No
COc1cc([C@@H]2c3cc4c(cc3[C@@H](O[C@@H]3O[C@@H]5CO[C@@H](C)O[C@H]5[C@H](O)[C@H]3O)[C@H]3COC(=O)[C@H]23)OCO4)cc(OC)c1O [Etoposide] | 0.717-0.864 | 0.487-0.623 | 0.281-0.794 |  | 0.716-0.836 | 0.107-0.751 |  |  | 0.593-0.875 | 0.677-0.883 |  |  |  |  |  |  |  |  | 0.763-0.891 |  | CI range [23, 32]: 0.638-0.834; Synergy with pyrvinium pamoate [25]: No; Synergy with pyrvinium pamoate [26]: No
O=P1(NCCCl)OCCCN1CCCl (centres unmarked) [Ifosfamide] |  |  |  |  |  |  |  |  |  |  |  |  |  |  |  |  |  |  |  | 0.285-0.315 | 
CC(=O)O[C@@]12CO[C@@H]1C[C@H](O)[C@@]1(C)C(=O)[C@H](O)C3=C(C)[C@@H](OC(=O)[C@H](O)[C@@H](NC(=O)OC(C)(C)C)c4ccccc4)C[C@@](O)([C@@H](OC(=O)c4ccccc4)[C@H]21)C3(C)C [Docetaxel] |  |  |  |  |  |  |  |  |  |  |  |  |  |  |  |  |  |  |  |  | Synergy with pyrvinium pamoate [18]: No
O=P1(N(CCCl)CCCl)NCCCO1 (centres unmarked) [Cyclophosphamide] |  |  | 0.167-0.751 |  |  |  |  |  |  | 0.718-0.722 |  |  |  |  |  | 0.083-0.786 | 0.274-0.867 |  | 0.256-0.876 |  | CI range [23]: Yes- (0.098-0.858)
O=C1[O][Pt]2([NH][C@@H]3CCCC[C@H]3[NH]2)[O]C1=O [Oxaliplatin] |  |  |  |  | 0.375-0.889 |  | 0.558-0.871 | 0.447-0.703 |  |  | 0.083-0.831 and 0.089-0.851 |  |  |  | 0.340-0.884 |  |  | 0.254-0.802 |  |  | CI range [13]: Yes- (0.384-0.781); CI range [28]: 0.354-0.865; CI range [29]: 0.307-0.870
CC(=O)O[C@H]1C(=O)[C@@]2(C)[C@H]([C@H](OC(=O)c3ccccc3)[C@]3(O)C[C@H](OC(=O)[C@H](O)[C@@H](NC(=O)c4ccccc4)c4ccccc4)C(C)=C1C3(C)C)[C@]1(OC(C)=O)CO[C@@H]1C[C@@H]2O [Paclitaxel] | 0.571-0.887 | 0.552-0.870 | 0.479-0.873 | 0.573-0.862 |  |  | 0.640-0.888 | 0.527-0.896 | 0.586-0.884 | 0.254-0.721 | 0.178-0.820 | 0.399-0.808 | 0.078-0.847 | 0.451-0.761 | 0.232-0.830 | 0.362-0.829 | 0.073-0.876 | 0.613-0.899 | 0.545-0.868 | 0.262-0.773 | CI range [4]: 0.255-0.847 and 0.296-0.785; CI range [5]: 0.277-0.894; CI range [13, 31]: 0.076-0.898; CI range ([30]; combination with pyrvinium pamoate): (0.089-0.330); CI range [23, 32]: 0.367-0.857; CI range [18]: 0.104-0.877
CCc1c2c(nc3ccc(OC(=O)N4CCC(N5CCCCC5)CC4)cc13)-c1cc3c(c(=O)n1C2)COC(=O)[C@]3(O)CC [Irinotecan] | 0.285-0.855 | 0.652-0.827 |  | 0.580-0.772 | 0.582-0.878 | 0.158-0.866 |  | 0.438-0.783 | 0.612-0.764 | 0.466-0.803 |  | 0.039-0.837 | 0.362-0.885 | 0.445-0.697 |  | 0.324-0.872 | 0.068-0.711 |  | 0.719-0.891 | 0.235-0.705 | Synergy with pyrvinium pamoate [9]: No; CI range [13, 31]: 0.258-0.892; Synergy with pyrvinium pamoate [14]: No; Synergy with pyrvinium pamoate [30]: No; CI range [18]: 0.414-0.760; Synergy with pyrvinium pamoate [22]: No
